From patent publication EP0830136B1, “NEW CRY[…] […]” (priority 1995, dated 1996)
“Also recorded” adds a separate entry of the source. Where two headings read alike, the source gives them in different places.

Legend:
[1] = test system: human tumor cell lines KB and LoVo; experiment: In vitro cytotoxicity, KB and LoVo; conditions: read-out: cytotoxicities IC50's
MX-1 Human Breast = conditions: Exp # 1806; SC Tumor MX-1 Human Breast; 8 Inj. IV; 12 mg/kg Total Dose
Experimental: (§1) Gross log kill is defined as T-C/3.2 Td where T is the median time in days for the tumors of the treated group to reach 750mg, C is the median time in days for the tumors of the control group to reach 750mg, and Td is the tumor volume doubling time (T.H. Corbett et al., Cytotoxic Anticancer Drugs: Models and Concepts for Drug Discovery and Development, pp 35-87; Kluwer: Norwell, 1992).

Colon 51 = conditions: SC Tumor Colon 51
[2] = test system: Human Sm Cell L. DMS273 SCID; conditions: Exp # 1596; SC Tumor Human Sm Cell L. DMS273 SCID; 6 Inj. IV; 7.3 mg/kg Total Dose
Experimental: as §1

M17/0 (Adr. Sens.) = conditions: Exp # 1833; SC Tumor M17/0 (Adr. Sens.); 5 Inj. IV; 5.4 mg/kg Total Dose
Experimental: as §1

Mam 16/C = conditions: SC Tumor Mam 16/C
[3] = Methanolysis (solvolysis) of the C-D ester bond; type: physicochemical; conditions: methanol used in the isolation scheme
physchem = conditions: aqueous base, pH 11
Mam 16/Taxol = conditions: Exp # 1733; SC Tumor Mam 16/Taxol; 5 Inj. IV; 16.5 mg/kg Total Dose
Experimental: as §1

KB = experiment: In vitro cytotoxicity, KB cell line; type: cell-based, human; conditions: read-out: RB IC50
LNCaP Human Prostate = conditions: Exp # 1841; SC Tumor LNCaP Human Prostate; 6 Inj. IV; 6.5 mg/kg Total Dose
Experimental: as §1

H125 Human Adenosq-lung = conditions: Exp # 1823; SC Tumor H125 Human Adenosq-lung; 8 Inj. IV; 14.4 mg/kg Total Dose
Experimental: as §1

tumors implanted in mice = conditions: for T/C values / gross log kill values: summary over trials, partly worded 'mostly'; for in vivo antitumor activity: statement in words
LoVo = experiment: In vitro cytotoxicity, LoVo cell line; type: cell-based, human
Colon 26 = experiment: In vivo activity, Colon 26 experiment; design: species or system mice
Experimental: as §1

[4] = test system: A-10 rat aortic smooth muscle cells; experiment: Immunofluorescence of cytoskeleton in A-10 cells; type: cell-based; conditions: A-10 cells
Experimental: A-10 cells were grown to near-confluency on glass coverslips in BME/10% FBS. Compounds in PBS were added to the indicated final concentrations and cells were incubated for an additional 24 hours. For the staining of microtubules and intermediate filaments, the cells were fixed with cold methanol and incubated with PBS containing 10% calf serum to block nonspecific binding sites. Cells were then incubated at 37°C for 60 min with either monoclonal anti-β-tubulin or with monoclonal anti-vimentin at dilutions recommended by the manufacturer. Bound primary antibodies were subsequently visualized by a 45-minute incubation with fluorescein-conjugated rabbit antimouse IgG. The coverslips were mounted on microscope slides and the fluorescence patterns were examined and photographed using a Zeiss Photomicroscope ill equipped with epifluorescence optics for fluorescein. […] PBS containing 100nM TRITC-phalloidin was then added and the mixture was allowed to incubate for 45 min at 37° C. The cells were washed rapidly three times with PBS before the coverslips were mounted and immediately photographed as described above.

SKOV3 cells = experiment: Cell proliferation assay (SRB staining), SKOV3; type: cell-based, Human; conditions: 24 hours with IC50 doses
SKVLB1 cells = experiment: cells; type: cell-based; conditions: Homo sapiens, SKVLB1, 48 h, read-out: SKVLB1 IC50 (nM)
Experimental: The Jurkat T cell leukemia line and A-10 rat aortic smooth muscle cells were obtained from the American Type Culture Collection and were cultured in BME containing 10% FBS and 50µg/mL gentamycin sulfate. […] Both cell lines were maintained in BME containing 10% FBS and 50µg/mL gentamycin sulfate.
Cell proliferation assays were performed as described by Skehan et al.^11 For Jurkat cells, cultures were treated with the indicated drugs as described in Skehan^11 and total cell numbers were determined by counting the cells in a hemacytometer. The percentage of cells in mitosis was determined by staining with 0.4% Giemsa in PBS followed by three rapid washes with PBS. At least 1000 cells per treatment were scored for the presence of mitotic figures and the mitotic index was calculated as the ratio of cells with mitotic figures to the total number of cells counted.

[5] = Exp # 1636, 7 Inj. IV, 28.1 mg/kg Total Dose
[6] = Exp # 1720, 5 Inj. IV, 13.2 mg/kg Total Dose
[7] = Exp # 1560, SC Tumor Colon 38, 8 Inj. IV, 10.3 mg/kg Total Dose
[8] = Exp # 1843, SC Tumor P03, 4 Inj. IV, 28/5 mg/kg TD
[9] = Exp # 1900, 9 Inj. IV, 67.5 mg/kg TD
[10] = Exp # 1885, 7 Inj. IV, 21.3 mg/kg TD
[11] = Exp # 1887 B, SC Tumor C38, 6 Inj. IV, 30 mg/kg TD
[12] = Exp # 1825, SC Tumor P03, 11 Inj. IV, 106 mg/kg TD
[13] = Exp # 1878, SC Tumor P03, 9 Inj. IV, 82 mg/kg TD
[14] = Exp # 1813, SC Tumor P03, 9 Inj. IV, 27 mg/kg TD
[15] = Exp # 1843, SC Tumor P03, 7 Inj. IV, 23 mg/kg TD
[16] = 24 hours, 2µM cytochalasin B, 100nM vinblastine or 10nM cryptophycin compounds

Structure (SMILES): COc1ccc(C[C@H]2NC(=O)/C=C/C[C@@H]([C@H](C)[C@H]3O[C@@H]3c3ccccc3)OC(=O)[C@H](CC(C)C)OC(=O)[C@H](C)CNC2=O)cc1Cl [Cryptophycin 1]
- IC50 [1]: 0.009 to 0.029 nM
- % Body Wt. Loss at Nadir (MX-1 Human Breast): -3%
- Cures (MX-1 Human Breast): 0/5
- Log Kill (MX-1 Human Breast): 2.0
- T/C (MX-1 Human Breast): 3%
- % Body Wt. Loss at Nadir (Colon 51; [5]): -11%
- Cures (Colon 51; [5]): 0/5
- Log Kill (Colon 51; [5]): 1.3
- T/C (Colon 51; [5]): 7%
- % Body Wt. Loss at Nadir [2]: 0%
- Cures [2]: 0/5
- Log Kill [2]: <1
- T/C [2]: 27%
- % Body Wt. Loss at Nadir (M17/0 (Adr. Sens.)): -10%
- Cures (M17/0 (Adr. Sens.)): 0/5
- Log Kill (M17/0 (Adr. Sens.)): <1
- T/C (M17/0 (Adr. Sens.)): 23%
- % Body Wt. Loss at Nadir (Mam 16/C; [6]): -1%
- Cures (Mam 16/C; [6]): 0/5
- Log Kill (Mam 16/C; [6]): 1.4
- T/C (Mam 16/C; [6]): 5%
- methanolysis of the C-D ester bond [3]: considerable methanolysis
- half-life (physchem): 49.8 min
- % Body Wt. Loss at Nadir (Mam 16/Taxol): 0%
- Cures (Mam 16/Taxol): 0/5
- Log Kill (Mam 16/Taxol): 1.8
- T/C (Mam 16/Taxol): 2%
- IC50 (KB): 0.0092 nM
- % Body Wt. Loss at Nadir (Colon 38; [7]): Gain
- Cures (Colon 38; [7]): 0/5
- Log Kill (Colon 38; [7]): 1.5
- T/C (Colon 38; [7]): 6%
- % Body Wt. Loss at Nadir (LNCaP Human Prostate): -6%
- Cures (LNCaP Human Prostate): 0/5
- Log Kill (LNCaP Human Prostate): <1
- T/C (LNCaP Human Prostate): 26%
- % Body Wt. Loss at Nadir (H125 Human Adenosq-lung): -15%
- Cures (H125 Human Adenosq-lung): 0/5
- Log Kill (H125 Human Adenosq-lung): 1.1
- T/C (H125 Human Adenosq-lung): 9%
- dead (H125 Human Adenosq-lung): 1/5
- toxicity in animals (tumors implanted in mice; compared with Cryptophycin 8): appreciable toxicity
- T/C values (tumors implanted in mice): > 0%
- gross log kill values (tumors implanted in mice): < 2.0
- IC50 (LoVo): 0.0104 nM

Structure (SMILES): COc1ccc(C[C@H]2NC(=O)/C=C/C[C@@H]([C@H](C)/C=C/c3ccccc3)OC(=O)[C@H](CC(C)C)OC(=O)[C@H](C)CNC2=O)cc1Cl [Cryptophycin 3]
- IC50 [1]: 3.5 to 5.8 nM
- IC50 (KB): 3.1 to 4.6 nM
- in vivo antitumor activity (tumors implanted in mice): antitumor activity is greatly diminished
- % Body Wt. Loss at Nadir (Panc 03; [8]): -9%
- Cures (Panc 03; [8]): 0/5
- Log Kill (Panc 03; [8]): <1
- T/C (Panc 03; [8]): 54%
- IC50 (LoVo): 1.9 to 5.8 nM

Structure (SMILES): COc1ccc(C[C@H]2NC(=O)/C=C/C[C@@H]([C@H](C)[C@@H](O)[C@@H](Cl)c3ccccc3)OC(=O)[C@H](CC(C)C)OC(=O)[C@H](C)CNC2=O)cc1Cl [Cryptophycin 8]
- IC50 [1]: 0.009 to 0.019 nM
- % Body Wt. Loss at Nadir (Colon 51; [9]): -1%
- Cures (Colon 51; [9]): 0/5
- Log Kill (Colon 51; [9]): 1.8
- T/C (Colon 51; [9]): 7%
- % Body Wt. Loss at Nadir (Mam 16/C; [10]): -4.5%
- Cures (Mam 16/C; [10]): 0/5
- Log Kill (Mam 16/C; [10]): 2.5
- T/C (Mam 16/C; [10]): 6%
- IC50 (KB): 0.019 nM
- % Body Wt. Loss at Nadir (Colon 38; [11]): -2%
- Cures (Colon 38; [11]): 1/5
- Log Kill (Colon 38; [11]): 2.8
- T/C (Colon 38; [11]): 0%
- T/C values (tumors implanted in mice): 0%
- gross log kill values (tumors implanted in mice): > 2.8
- % Body Wt. Loss at Nadir (Panc 03; [12]): -6%
- Cures (Panc 03; [12]): 0/5
- T/C (Panc 03; [12]): 4%
- Log Kill (Panc 03; mouse, in vivo, 106 mg/kg): 4.6
- IC50 (LoVo): 0.0091 nM

Structure (SMILES): COc1ccc(C[C@H]2NC(=O)/C=C/C[C@@H]([C@H](C)[C@@H](O)[C@@H](O)c3ccccc3)OC(=O)[C@H](CC(C)C)OC(=O)[C@H](C)CNC2=O)cc1Cl [Cryptophycin 15]
- in vivo antitumor activity (tumors implanted in mice): antitumor activity is greatly diminished

Structure (SMILES): CC(C)C[C@@H]1OC(=O)[C@H](C)CNC(=O)[C@@H](Cc2ccc(O)c(Cl)c2)NC(=O)/C=C/C[C@@H]([C@H](C)[C@H]2O[C@@H]2c2ccccc2)OC1=O [Cryptophycin 16]
- % Body Wt. Loss at Nadir (Panc 03; [13]): -1%
- Cures (Panc 03; [13]): 0/5
- Log Kill (Panc 03; [13]): None
- T/C (Panc 03; [13]): 89%

Structure (SMILES): COc1ccc(C[C@H]2NC(=O)/C=C/C[C@@H]([C@H](C)[C@H]3O[C@@H]3c3ccccc3)OC(=O)[C@H](CC(C)C)OC(=O)CCNC2=O)cc1Cl [Cryptophycin 21]
- methanolysis of the C-D ester bond [3]: considerable methanolysis; also recorded: much more susceptible to methanolysis than Cryptophycin 1
- half-life (physchem): 15 min
- in vivo antitumor activity (tumors implanted in mice): inactive
- % Body Wt. Loss at Nadir (Panc 03; [14]): -11%
- Cures (Panc 03; [14]): 0/5
- Log Kill (Panc 03; [14]): None
- T/C (Panc 03; [14]): 61%
- dead (Panc 03; [14]): 1/5

Structure (SMILES): COc1ccc(C[C@H]2NC(=O)/C=C/C[C@@H]([C@H](C)[C@@H](O)[C@@H](Br)c3ccccc3)OC(=O)[C@H](CC(C)C)OC(=O)[C@H](C)CNC2=O)cc1Cl [Cryptophycin 25]
- T/C and gross log kill values, comparison in words (tumors implanted in mice; mouse, in vivo): comparable with those for Cryptophycin 1

Structure (SMILES): COc1ccc(CC2NC(=O)CCCC(C(C)C3OC3c3ccccc3)OC(=O)C(CC(C)C)OC(=O)C(C)CNC2=O)cc1Cl (stereo not shown) [Cryptophycin 35]
- % Body Wt. Loss at Nadir (Panc 03; [15]): -2%
- Cures (Panc 03; [15]): 0/5
- Log Kill (Panc 03; [15]): 1.3
- T/C (Panc 03; [15]): 11%

Structure (SMILES): COc1ccc(C[C@H]2NC(=O)/C=C/C[C@@H]([C@H](C)/C=C/c3ccccc3)OC(=O)[C@H](CC(C)C)OC(=O)C(C)(C)CNC2=O)cc1Cl [Cryptophycin 51]
- IC50 [1]: 3.5 to 5.8 nM

Structure (SMILES): COc1ccc(C[C@H]2NC(=O)/C=C/C[C@@H]([C@H](C)[C@@H](O)[C@@H](Cl)c3ccccc3)OC(=O)[C@H](CC(C)C)OC(=O)C(C)(C)CNC2=O)cc1Cl [Cryptophycin 55]
- IC50 [1]: 0.033 to 0.047 nM
- gross log kill value (Colon 26): 1.2
- total dosage required in vivo relative to comparator (tumors implanted in mice; mouse, in vivo): three times the total dosage compared with Cryptophycin 8
- in vivo antitumor activity (tumors implanted in mice): active in vivo

Structure (SMILES): C=C1[C@@H](C)[C@H]2[C@H](Cc3ccccc3)NC(=O)[C@]23OC(=O)/C=C/[C@H](O)CCC[C@@H](C)C/C=C/[C@H]3[C@@H]1O [Cytochalasin B, cytochalasin B]
- effect on microfilaments [4, 16]: complete depolymerization of microfilaments
- effect on microtubules [4, 16]: did not affect the distribution of either mierotubules or intermediate filaments
- effect on vimentin intermediate filaments [4, 16]: did not affect the distribution of either mierotubules or intermediate filaments

Structure (SMILES): CC(=O)O[C@H]1C(=O)[C@@]2(C)[C@H]([C@H](OC(=O)c3ccccc3)[C@]3(O)C[C@H](OC(=O)[C@H](O)[C@@H](NC(=O)c4ccccc4)c4ccccc4)C(C)=C1C3(C)C)[C@]1(OC(C)=O)CO[C@@H]1C[C@@H]2O [taxol]
- increase in cell number during treatment (SKOV3 cells): 25%
- microtubule organization in taxol-treated cells ([4]; 10µM taxol): extensively bundled
- IC50 (SKVLB1 cells): 8000 nM
